Laboratory results: patent US9145411B2, “Substituted amino-pyrimidine derivatives” (Asana Biosciences, LLC, priority 2012, dated 2015)

Key:
mTOR kinase = target: T1, mTOR kinase (Homo sapiens, UniProt P42345); assay: mTOR kinase TR-FRET assay; format: biochemical; conditions: 20 μM ATP
T1 construct: purchased Millipore, USA
In short: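 Test compounds were pre-incubated 60 min with mTOR (5 ng), then ULight-p70 S6K (Thr389) peptide (50 nM) and ATP (20 μM) were added in HEPES 50 mM pH 7.5, EGTA, MnCl2 3 mM. After 60 min at room temperature, EDTA stop and Eu-anti-phospho antibody TR-FRET (665/615 nm) gave IC50 from sigmoidal variable-slope fits.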

PI3Kα (wild-type) = target: T2, PI3Kα (wild-type) (Homo sapiens, UniProt P42336); assay: PI3 Kinase TR-FRET assay, PI3Kα (wild-type); format: biochemical; conditions: wild-type P110/P85α, 10 μM ATP
T2 construct: made in house; host or cells: SF9 insect cells
T2 sequence (P42336 whole entry, species assumed): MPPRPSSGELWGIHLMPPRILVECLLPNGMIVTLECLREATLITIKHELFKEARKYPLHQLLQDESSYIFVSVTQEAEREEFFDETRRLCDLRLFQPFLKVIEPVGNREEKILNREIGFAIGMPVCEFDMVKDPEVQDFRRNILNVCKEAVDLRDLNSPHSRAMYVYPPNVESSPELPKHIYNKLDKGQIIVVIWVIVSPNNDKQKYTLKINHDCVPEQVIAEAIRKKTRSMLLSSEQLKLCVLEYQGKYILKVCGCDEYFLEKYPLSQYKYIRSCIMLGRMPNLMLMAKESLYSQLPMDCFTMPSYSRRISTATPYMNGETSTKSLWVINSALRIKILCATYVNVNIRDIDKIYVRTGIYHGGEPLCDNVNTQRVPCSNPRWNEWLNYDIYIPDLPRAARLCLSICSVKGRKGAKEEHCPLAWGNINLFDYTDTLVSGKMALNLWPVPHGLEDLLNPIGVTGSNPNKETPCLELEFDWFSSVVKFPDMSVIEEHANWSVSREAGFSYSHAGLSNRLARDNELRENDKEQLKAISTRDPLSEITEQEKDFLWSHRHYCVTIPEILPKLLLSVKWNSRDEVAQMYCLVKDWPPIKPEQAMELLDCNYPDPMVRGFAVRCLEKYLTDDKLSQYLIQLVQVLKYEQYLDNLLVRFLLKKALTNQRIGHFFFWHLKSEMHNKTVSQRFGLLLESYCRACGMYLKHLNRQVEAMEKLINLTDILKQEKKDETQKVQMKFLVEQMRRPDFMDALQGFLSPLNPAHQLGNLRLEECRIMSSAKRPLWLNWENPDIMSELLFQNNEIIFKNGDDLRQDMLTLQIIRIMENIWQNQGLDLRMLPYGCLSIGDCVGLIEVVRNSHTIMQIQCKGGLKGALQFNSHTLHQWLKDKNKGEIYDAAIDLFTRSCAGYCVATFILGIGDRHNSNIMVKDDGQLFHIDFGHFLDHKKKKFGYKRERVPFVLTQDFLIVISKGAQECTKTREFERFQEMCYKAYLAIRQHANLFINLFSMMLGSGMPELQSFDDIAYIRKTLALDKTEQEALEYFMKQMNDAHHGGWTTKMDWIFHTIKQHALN
T2 sequence (P27986 whole entry partner, species assumed): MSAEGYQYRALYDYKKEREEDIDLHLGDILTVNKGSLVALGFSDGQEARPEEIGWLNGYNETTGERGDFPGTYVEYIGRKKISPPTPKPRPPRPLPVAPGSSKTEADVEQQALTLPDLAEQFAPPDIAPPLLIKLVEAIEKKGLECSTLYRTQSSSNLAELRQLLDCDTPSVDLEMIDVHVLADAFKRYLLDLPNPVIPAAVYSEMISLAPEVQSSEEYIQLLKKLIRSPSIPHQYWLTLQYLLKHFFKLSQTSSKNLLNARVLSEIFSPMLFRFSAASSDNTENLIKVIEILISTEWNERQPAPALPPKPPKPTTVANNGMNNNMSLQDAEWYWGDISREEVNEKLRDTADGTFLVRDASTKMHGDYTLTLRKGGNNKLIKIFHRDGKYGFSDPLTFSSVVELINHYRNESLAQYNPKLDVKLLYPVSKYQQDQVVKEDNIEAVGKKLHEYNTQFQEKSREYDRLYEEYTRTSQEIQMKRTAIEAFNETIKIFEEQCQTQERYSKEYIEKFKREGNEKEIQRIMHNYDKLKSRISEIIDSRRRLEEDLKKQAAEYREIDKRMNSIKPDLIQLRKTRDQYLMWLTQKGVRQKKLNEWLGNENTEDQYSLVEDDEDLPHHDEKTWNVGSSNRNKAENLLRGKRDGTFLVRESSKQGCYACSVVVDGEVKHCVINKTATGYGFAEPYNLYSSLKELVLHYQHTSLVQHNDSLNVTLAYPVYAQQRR
In short: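 Sf9-expressed, Ni-purified p110/p85α (5 ng) with PIP2 was preincubated with compound for 60 min at room temperature in buffer with 40 mM MgCl2 and 5 mM DTT. The reaction ran 30 min at room temperature with 10 μM PIP2 and 10 μM ATP. The TR-FRET 665/615 nm ratio was used to derive IC50 from dose-response curves.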

PC3 cells = assay: XTT assay for cell viability, PC3 cells; format: cell-based; conditions: Homo sapiens, PC-3; PC3 cell proliferation, 96 hours
In short: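 Log-phase PC3 cells (1000/well) were seeded for 24 h, then exposed to serially diluted compounds (DMSO dilutions) for 96 h. Viability was measured by XTT dye conversion at 37 °C, with absorbance read at 465 nm. EC50 was obtained from a sigmoidal dose-response fit.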

pAkt(T308) = assay: In-cell Western assay, pAkt(T308), PC3 cells; format: cell-based; conditions: Homo sapiens, PC-3, 2 hours incubation
In short: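 PC3 cells, 22,000/well in Ham's F12K, exposed to serial compound dilutions for 2 h, then fixed and immunostained for each phospho-epitope. Eu-labelled secondary read by time-resolved fluorescence (ex 340, em 615 nm), corrected by Hoechst 33258 signal (ex 355, em 460 nm). IC50 from sigmoidal dose-response fit.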

pS6RP (S235/236) = assay: In-cell Western assay, pS6RP (S235/236), PC3 cells; format: cell-based; conditions: Homo sapiens, PC-3, 2 hours incubation
Description: (§1) Cells from human prostate cancer cell line PC3 (American Type Culture Collection (ATCC), Manassas, Va. 20108 USA) were seeded at an optimal density of 22,000 cell/well in 96-well plates containing Ham's F12K medium (90 μL) and incubated overnight. The compound dilutions were carried out in 100% DMSO followed by a dilution in the medium. Test compounds were added in serial dilutions to the wells and incubated for 2 hours. The cells were washed and fixed with 4% paraformaldehyde. After incubation at room temperature for 1 hour in the dark, blocking was done for 2 hours at room temperature. Primary antibodies for pAkt(S473) ([…] phosphorylated at serine 473), pAkt(T308) (Akt phosphorylated at threonine 308) and for pS6RP (S235/236) (phosphorylated at serine 235/236) (commercially available from Cell Signaling Technology®, whose protocol was followed for the in-cell western assay, were diluted to the required concentration and added to the corresponding wells followed by overnight incubation at 4° C. Eu-labeled rabbit (PE) (Perkin-Elmer USA catalog #AD0106) secondary antibody was added and incubated for 2 hours at room temperature. Delfia® enhancement solution (cat #1244-105, Perkin Elmer USA) was subsequently added to the plate before taking the reading at 615 nm with excitation wavelength of 340 nm, after which 0.5 μg/mL of Hoechst® 33258 dye (Catalog #86140-5, Sigma) was added to the plate and fluorescence emission was read at 460 nm with 355 nm excitation, to evaluate the correction factor. IC50 values were calculated using a sigmoidal dose-response curve fit in GraphPad Prism® v5 software.

pAkt(S473) = assay: In-cell Western assay, pAkt(S473), PC3 cells; format: cell-based; conditions: Homo sapiens, PC-3, 2 hours incubation
Description: as §1

T1 sequence (P42345 1362-2549 limits assumed): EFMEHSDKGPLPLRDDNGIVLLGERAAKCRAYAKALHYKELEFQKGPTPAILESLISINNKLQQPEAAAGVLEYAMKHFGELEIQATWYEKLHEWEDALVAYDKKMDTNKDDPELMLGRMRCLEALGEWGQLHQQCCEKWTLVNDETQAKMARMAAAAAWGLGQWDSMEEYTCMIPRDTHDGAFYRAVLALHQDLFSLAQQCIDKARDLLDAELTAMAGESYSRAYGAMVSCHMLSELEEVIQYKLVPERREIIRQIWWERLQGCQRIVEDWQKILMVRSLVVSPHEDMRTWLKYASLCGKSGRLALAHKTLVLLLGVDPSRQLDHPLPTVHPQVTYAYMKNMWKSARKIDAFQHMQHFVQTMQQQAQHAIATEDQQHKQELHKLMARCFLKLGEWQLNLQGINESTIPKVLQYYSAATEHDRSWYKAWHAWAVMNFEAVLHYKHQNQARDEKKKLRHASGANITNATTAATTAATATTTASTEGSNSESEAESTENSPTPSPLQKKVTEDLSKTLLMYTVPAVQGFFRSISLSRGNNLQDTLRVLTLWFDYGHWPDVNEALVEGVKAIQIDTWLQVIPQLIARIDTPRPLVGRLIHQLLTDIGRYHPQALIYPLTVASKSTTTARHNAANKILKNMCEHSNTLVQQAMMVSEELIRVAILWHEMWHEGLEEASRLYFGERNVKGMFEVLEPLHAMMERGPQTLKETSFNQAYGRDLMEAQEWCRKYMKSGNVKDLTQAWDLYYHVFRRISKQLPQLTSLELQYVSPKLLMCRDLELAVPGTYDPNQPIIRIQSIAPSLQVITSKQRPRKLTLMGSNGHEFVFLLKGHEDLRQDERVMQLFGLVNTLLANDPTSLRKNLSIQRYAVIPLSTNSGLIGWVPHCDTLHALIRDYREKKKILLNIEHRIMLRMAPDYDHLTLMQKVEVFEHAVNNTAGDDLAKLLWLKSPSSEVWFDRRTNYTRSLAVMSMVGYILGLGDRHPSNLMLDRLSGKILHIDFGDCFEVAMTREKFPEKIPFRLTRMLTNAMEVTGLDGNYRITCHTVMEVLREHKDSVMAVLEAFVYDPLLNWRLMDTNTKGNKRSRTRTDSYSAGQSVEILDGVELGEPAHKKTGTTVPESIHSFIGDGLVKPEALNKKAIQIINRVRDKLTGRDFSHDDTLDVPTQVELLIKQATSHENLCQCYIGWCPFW

| IC50 (mTOR kinase) [nM] | IC50 (PI3Kα (wild-type)) [nM] | IC50 (PC3 cells) [nM] | IC50 (pAkt(T308)) [nM] | IC50 (pS6RP (S235/236)) [nM] | IC50 (pAkt(S473)) [nM] | Structure (SMILES) |
| --- | --- | --- | --- | --- | --- | --- |
| < 50 | < 50 | 100 to 500 | 100 to 500 | 100 to 500 | 100 to 500 | CC(=O)Nc1cccc(-c2cnc3c(N4CCOCC4)nc(-c4cnc(N)nc4)nc3c2)c1 [Example 3, N-(3-(2-(2-Aminopyrimidin-5-yl)-4-morpholinopyrido[3,2-d]pyrimidin-7-yl)-phenyl)acetamide] |
| < 50 | < 50 | 100 to 500 | 100 to 500 | 100 to 500 | < 100 | Nc1ncc(-c2nc(N3CCOCC3)c3ncc(-c4cccc(NC(=O)C5CC5)c4)cc3n2)cn1 [Example 7, N-(3-(2-(2-Aminopyrimidin-5-yl)-4-morpholinopyrido[3,2-d]pyrimidin-7-yl)-phenyl)cyclopropanecarboxamide] |
| < 50 | < 50 | 100 to 500 | < 100 | < 100 | 100 to 500 | N#CC1(C(=O)Nc2cccc(-c3cnc4c(N5CCOCC5)nc(-c5cnc(N)nc5)nc4c3)c2)CC1 [Example 61, N-(3-(2-(2-amino-pyrimidin-5-yl)-4-morpholinopyrido[3,2-d]pyrimidin-7-yl)phenyl)-1-cyanocyclopropane-carboxamide] |
